From publication PMC9719519, “Non-classical ferroptosis inhibition by a small molecule targeting PHB2” (Nature Communications, 2022)

What was measured:
Assay in all cases: biochemical
Parameters in all cases: Eurofins recombinant human kinase profiling, remaining kinase activity as % of control, 10 uM ATP
Details in all cases: ATP 10 uM; read-out: %Ctrl@10 μM
[1] = target: T1, DRAK2(h) (Homo sapiens, UniProt O94768)
T1 construct: gene STK17B
In short: (§1)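 Recombinant human kinases, 401 in total, screened using an outsourced kinase profiling assay.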

[2] = target: CDK17/cyclinY(h) (Homo sapiens, UniProt Q00537)
In short: as §1

[3] = target: T2, MRCKγ(h) (Homo sapiens, UniProt Q6DT37)
T2 construct: gene CDC42BPG
In short: as §1

[4] = target: T3, cKit(D816H)(h) (Homo sapiens, UniProt P10721, D816H)
T3 construct: gene KIT
In short: as §1

[5] = target: CDK2/cyclinE(h) (Homo sapiens, UniProt P24941)
In short: as §1

[6] = target: Bmx(h) (Homo sapiens, UniProt P51813)
In short: as §1

[7] = target: T4, JNK2α2(h) (Homo sapiens, UniProt P45984)
T4 construct: gene MAPK9; isoform alpha2
In short: as §1

[8] = target: T5, PRK1(h) (Homo sapiens, UniProt Q16512)
T5 construct: gene PKN1
In short: as §1

[9] = target: EphA7(h) (Homo sapiens, UniProt Q15375)
In short: as §1

[10] = target: TSSK3(h) (Homo sapiens, UniProt Q96PN8)
In short: as §1

[11] = target: T6, TrkC(h) (Homo sapiens, UniProt Q16288)
T6 construct: gene NTRK3
In short: as §1

[12] = target: T7, GCK(h) (Homo sapiens, UniProt Q12851)
T7 construct: gene MAP4K2
In short: as §1

[13] = target: STK32C(h) (Homo sapiens, UniProt Q86UX6)
In short: as §1

[14] = target: T8, MAPK1(h) (Homo sapiens, UniProt P27361)
T8 construct: gene MAPK3
In short: as §1

[15] = target: Flt3(h) (Homo sapiens, UniProt P36888)
In short: as §1

[16] = target: T9, cKit(D816V)(h) (Homo sapiens, UniProt P10721, D816V)
T9 construct: gene KIT
In short: as §1

[17] = target: T10, ROCK-I(h) (Homo sapiens, UniProt Q13464)
T10 construct: gene ROCK1
In short: as §1

[18] = target: T11, ACTR2(h) (Homo sapiens, UniProt P27037)
T11 construct: gene ACVR2A
In short: as §1

[19] = target: T12, MRCKα(h) (Homo sapiens, UniProt Q5VT25)
T12 construct: gene CDC42BPA
In short: as §1

[20] = target: T13, PDGFRα(h) (Homo sapiens, UniProt P16234)
T13 construct: gene PDGFRA
In short: as §1

[21] = target: T14, PI3 Kinase (p120)(h) (Homo sapiens, UniProt P48736)
T14 construct: gene PIK3CG
In short: as §1

[22] = target: T15, DCAMKL2(h) (Homo sapiens, UniProt Q8N568)
T15 construct: gene DCLK2
In short: as §1

T1 sequence (O94768 whole entry): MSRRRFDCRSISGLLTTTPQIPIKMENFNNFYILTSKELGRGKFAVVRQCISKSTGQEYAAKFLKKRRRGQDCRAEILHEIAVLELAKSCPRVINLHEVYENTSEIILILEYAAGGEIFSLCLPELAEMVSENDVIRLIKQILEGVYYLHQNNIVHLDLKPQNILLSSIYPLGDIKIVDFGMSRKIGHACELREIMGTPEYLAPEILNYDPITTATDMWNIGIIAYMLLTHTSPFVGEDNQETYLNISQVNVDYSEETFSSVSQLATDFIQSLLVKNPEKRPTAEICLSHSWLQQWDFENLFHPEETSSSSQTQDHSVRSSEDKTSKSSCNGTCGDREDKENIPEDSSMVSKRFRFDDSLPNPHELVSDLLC
TSSK3(h), sequence (Q96PN8 whole entry): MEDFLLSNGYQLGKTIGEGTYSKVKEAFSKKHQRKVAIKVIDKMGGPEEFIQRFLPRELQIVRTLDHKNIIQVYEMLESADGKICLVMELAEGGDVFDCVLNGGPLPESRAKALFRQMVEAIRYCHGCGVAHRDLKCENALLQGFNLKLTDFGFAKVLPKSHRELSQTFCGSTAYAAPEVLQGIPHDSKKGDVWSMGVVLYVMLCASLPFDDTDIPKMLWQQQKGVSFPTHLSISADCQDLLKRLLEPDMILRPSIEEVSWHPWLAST
T7 sequence (Q12851 whole entry): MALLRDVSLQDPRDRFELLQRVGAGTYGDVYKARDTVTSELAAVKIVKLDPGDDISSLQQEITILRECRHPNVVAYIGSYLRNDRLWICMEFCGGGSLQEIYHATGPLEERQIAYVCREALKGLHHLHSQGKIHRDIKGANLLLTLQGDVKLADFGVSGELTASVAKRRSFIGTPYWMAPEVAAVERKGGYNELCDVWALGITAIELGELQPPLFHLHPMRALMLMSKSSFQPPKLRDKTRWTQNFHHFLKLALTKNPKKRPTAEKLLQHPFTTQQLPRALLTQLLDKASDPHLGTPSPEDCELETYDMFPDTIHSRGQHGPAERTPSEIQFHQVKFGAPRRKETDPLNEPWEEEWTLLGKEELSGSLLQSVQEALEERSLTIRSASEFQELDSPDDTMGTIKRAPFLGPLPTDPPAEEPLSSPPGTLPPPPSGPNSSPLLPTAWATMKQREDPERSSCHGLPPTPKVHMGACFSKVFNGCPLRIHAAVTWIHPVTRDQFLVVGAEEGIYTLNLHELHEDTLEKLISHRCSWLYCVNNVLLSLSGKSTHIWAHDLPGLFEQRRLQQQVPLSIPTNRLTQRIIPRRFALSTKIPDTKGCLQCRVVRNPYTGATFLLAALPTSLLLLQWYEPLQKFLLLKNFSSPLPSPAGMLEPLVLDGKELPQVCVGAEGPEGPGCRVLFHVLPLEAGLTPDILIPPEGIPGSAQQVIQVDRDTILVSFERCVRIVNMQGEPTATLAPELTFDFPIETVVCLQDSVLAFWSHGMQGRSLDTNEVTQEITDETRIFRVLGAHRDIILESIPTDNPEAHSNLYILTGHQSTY
T15 sequence (Q8N568 whole entry): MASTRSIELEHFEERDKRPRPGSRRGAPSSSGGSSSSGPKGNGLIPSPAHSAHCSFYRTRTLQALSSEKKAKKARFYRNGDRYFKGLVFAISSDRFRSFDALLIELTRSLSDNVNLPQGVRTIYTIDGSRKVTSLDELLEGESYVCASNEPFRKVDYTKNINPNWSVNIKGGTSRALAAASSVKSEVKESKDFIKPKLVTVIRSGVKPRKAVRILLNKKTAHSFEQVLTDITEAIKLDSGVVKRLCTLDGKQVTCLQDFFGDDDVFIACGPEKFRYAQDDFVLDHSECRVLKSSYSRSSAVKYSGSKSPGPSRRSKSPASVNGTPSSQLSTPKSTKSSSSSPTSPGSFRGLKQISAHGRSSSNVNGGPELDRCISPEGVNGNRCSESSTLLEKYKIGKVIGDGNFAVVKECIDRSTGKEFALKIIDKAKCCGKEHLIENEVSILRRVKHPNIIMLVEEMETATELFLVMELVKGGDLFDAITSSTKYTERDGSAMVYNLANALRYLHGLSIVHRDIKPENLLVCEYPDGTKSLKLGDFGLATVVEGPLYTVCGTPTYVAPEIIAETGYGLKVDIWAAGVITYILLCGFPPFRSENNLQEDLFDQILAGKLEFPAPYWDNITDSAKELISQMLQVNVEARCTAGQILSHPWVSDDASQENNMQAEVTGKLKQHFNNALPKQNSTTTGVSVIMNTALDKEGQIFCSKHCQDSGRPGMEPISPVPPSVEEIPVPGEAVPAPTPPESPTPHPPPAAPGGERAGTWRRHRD
T8 sequence (P27361 whole entry): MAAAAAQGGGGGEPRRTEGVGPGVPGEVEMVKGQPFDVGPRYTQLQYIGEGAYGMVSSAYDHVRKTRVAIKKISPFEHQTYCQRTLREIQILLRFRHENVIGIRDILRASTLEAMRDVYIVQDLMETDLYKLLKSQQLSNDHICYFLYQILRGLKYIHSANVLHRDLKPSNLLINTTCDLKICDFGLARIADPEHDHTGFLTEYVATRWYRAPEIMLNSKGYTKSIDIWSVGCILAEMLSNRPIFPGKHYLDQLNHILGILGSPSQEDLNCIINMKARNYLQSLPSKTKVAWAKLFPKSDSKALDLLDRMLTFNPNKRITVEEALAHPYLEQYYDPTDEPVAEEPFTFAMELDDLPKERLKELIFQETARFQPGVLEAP
T10 sequence (Q13464 whole entry): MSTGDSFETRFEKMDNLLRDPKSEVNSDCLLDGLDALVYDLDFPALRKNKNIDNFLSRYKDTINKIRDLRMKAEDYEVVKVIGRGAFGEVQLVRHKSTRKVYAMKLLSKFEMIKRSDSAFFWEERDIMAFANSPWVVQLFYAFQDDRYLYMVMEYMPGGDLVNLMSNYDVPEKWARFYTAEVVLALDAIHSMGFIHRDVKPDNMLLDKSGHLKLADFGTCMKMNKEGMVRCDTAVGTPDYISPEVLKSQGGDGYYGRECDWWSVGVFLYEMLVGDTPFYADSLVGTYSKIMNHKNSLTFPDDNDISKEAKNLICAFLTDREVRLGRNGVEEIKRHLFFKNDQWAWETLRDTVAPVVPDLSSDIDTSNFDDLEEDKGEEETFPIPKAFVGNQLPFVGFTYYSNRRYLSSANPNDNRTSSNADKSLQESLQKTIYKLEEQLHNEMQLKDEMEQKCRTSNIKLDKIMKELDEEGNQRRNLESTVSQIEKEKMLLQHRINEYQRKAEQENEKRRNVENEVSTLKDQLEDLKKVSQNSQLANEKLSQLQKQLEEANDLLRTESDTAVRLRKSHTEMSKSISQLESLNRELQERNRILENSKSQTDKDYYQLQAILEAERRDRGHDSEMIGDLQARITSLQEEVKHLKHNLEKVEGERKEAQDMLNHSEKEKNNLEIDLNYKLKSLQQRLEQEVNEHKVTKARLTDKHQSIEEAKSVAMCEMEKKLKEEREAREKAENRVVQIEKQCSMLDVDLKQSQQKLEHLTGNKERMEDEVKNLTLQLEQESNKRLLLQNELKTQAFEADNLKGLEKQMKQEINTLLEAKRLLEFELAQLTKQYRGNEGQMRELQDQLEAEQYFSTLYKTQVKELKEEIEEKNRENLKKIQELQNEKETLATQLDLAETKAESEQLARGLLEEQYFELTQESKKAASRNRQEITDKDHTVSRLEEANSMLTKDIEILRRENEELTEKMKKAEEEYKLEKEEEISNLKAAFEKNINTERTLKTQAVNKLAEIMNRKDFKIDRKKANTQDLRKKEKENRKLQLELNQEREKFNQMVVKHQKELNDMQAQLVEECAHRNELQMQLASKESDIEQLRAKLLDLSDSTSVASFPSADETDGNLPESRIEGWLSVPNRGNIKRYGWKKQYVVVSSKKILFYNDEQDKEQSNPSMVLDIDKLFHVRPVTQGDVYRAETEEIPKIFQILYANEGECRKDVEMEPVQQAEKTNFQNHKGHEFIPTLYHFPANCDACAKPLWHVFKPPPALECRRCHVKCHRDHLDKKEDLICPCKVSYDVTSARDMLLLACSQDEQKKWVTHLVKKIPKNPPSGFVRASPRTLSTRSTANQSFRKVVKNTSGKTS
T4 sequence (P45984 whole entry, canonical isoform): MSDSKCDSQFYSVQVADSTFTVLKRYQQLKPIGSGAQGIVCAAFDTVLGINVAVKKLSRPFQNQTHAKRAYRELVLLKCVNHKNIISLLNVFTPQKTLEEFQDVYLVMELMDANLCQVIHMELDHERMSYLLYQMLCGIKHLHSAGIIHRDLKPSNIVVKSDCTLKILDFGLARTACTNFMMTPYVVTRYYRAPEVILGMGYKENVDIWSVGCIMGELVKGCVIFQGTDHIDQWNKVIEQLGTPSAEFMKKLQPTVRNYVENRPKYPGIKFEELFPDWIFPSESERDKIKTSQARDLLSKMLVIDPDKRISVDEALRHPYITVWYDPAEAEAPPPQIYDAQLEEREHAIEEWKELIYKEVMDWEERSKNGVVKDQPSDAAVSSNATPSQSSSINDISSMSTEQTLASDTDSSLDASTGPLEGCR
T11 sequence (P27037 whole entry): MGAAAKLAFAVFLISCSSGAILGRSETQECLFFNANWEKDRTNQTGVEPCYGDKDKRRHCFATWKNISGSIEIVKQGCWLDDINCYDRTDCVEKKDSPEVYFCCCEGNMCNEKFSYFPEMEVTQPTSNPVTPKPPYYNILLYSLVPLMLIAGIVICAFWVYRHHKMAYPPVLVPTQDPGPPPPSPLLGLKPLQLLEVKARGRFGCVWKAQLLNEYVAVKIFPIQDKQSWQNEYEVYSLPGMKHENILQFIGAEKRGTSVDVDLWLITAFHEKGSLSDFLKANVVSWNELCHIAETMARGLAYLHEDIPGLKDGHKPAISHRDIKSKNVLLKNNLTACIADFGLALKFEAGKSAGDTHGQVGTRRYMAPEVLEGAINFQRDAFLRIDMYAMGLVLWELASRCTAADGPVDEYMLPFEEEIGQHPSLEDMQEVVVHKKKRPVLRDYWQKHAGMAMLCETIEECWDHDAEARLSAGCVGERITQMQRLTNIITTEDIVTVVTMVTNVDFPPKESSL

For C1=C(c2nc(-c3cnn(C4CCNCC4)c3)cn3cc(-c4ccccc4)nc23)CCOC1 [YL-939], the remaining activity at 10 µM [1] was 128%, the remaining activity at 10 µM [2] was 93% and the remaining activity at 10 µM [3] was 95%. It also gave a remaining activity at 10 µM [4] of 90%, a remaining activity at 10 µM [5] of 85% and a remaining activity at 10 µM [6] of 87%. The remaining activity at 10 µM [7] was 72%, the remaining activity at 10 µM [8] was 96% and the remaining activity at 10 µM [9] was 99%. For the same compound, the remaining activity at 10 µM [10] was 87%, the remaining activity at 10 µM [11] was 64% and the remaining activity at 10 µM [12] was 76%. For the same compound, the remaining activity at 10 µM [13] was 82%, the remaining activity at 10 µM [14] was 103% and the remaining activity at 10 µM [15] was 86%. The remaining activity at 10 µM [16] was 108%, the remaining activity at 10 µM [17] was 94% and the remaining activity at 10 µM [18] was 94%. For the same compound, the remaining activity at 10 µM [19] was 92%, the remaining activity at 10 µM [20] was 76% and the remaining activity at 10 µM [21] was 104%. The remaining activity at 10 µM [22] was 79%.
